Among the test systems are HCT-116 colon; OVCAR-8 ovarian; SN12C renal; DU-145 prostate; HCT-15 colon; MDA-MB-231 breast; NCI-H226 lung; UACC-62 melanoma; MOLT-4 leukemia; SF-295 CNS.
Common to all, as to assay: NCI-60 cell line screen, 48 h

The structures appear in SMILES notation. Several values for one entry are separate records, joined by “and”; a condition that tells them apart may be missing. Identical values can stand only once.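 Interpolation was linear, between the two tested concentrations surrounding the appropriate level; five concentrations were tested over 48 hours in 96-well plates. Here, GI50 denotes the concentration required for 50% inhibition of growth. TGI: concentration producing complete growth inhibition.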

As for `Cn1cc(C2=C(c3cn(C)c4cc(Cl)ccc34)C(=O)NC2=O)c2ccccc21`, the GI50 was 0.113 µM in the assay on HCT-116 colon; 0.117 µM in the assay with OVCAR-8 ovarian; 0.145 µM in the assay with SN12C renal; 0.119 µM with DU-145 prostate; 0.103 µM with HCT-15 colon; 0.125 µM with MDA-MB-231 breast. The GI50 in the assay with NCI-H226 lung is 2.08 µM; with UACC-62 melanoma, 0.0981 µM; in the assay on MOLT-4 leukemia, 0.345 µM; in the assay with SF-295 CNS, 0.093 µM. Moreover, the TGI with HCT-116 colon was greater than 20.6 µM; with OVCAR-8 ovarian, greater than 25 µM; in the assay on SN12C renal, greater than 15.9 µM; in the assay on HCT-15 colon, greater than 25 µM; with MDA-MB-231 breast, greater than 5.58 µM; in the assay with NCI-H226 lung it was greater than 25 µM. Moreover, the TGI in the assay with UACC-62 melanoma, in the assay with MOLT-4 leukemia and in the assay on SF-295 CNS was greater than 25 µM in each case.
With `O=C(N/N=C\c1cc(Br)cc(Br)c1O)N/N=C/c1cc(Br)cc(Br)c1O`, the GI50 in the assay with HCT-116 colon is 5.96 µM; with OVCAR-8 ovarian, 2.88 µM; in the assay on SN12C renal it was 4.56 µM; in the assay on DU-145 prostate, 4.63 µM; in the assay on HCT-15 colon, 2.77 µM; with MDA-MB-231 breast it was 4.18 µM. Further, the GI50 with NCI-H226 lung was 2.23 µM; with UACC-62 melanoma it was 1.8 µM; in the assay on MOLT-4 leukemia, 2.14 µM; in the assay with SF-295 CNS, 2.48 µM. In addition, the TGI turned out to be 22.3 µM with HCT-116 colon; 16.7 µM with OVCAR-8 ovarian; 17.8 µM in the assay on SN12C renal; 15.5 µM in the assay on DU-145 prostate; 16.1 µM in the assay with HCT-15 colon; 17.5 µM with MDA-MB-231 breast. The TGI is 9.82 µM in the assay on NCI-H226 lung, 10.2 µM in the assay on UACC-62 melanoma, 11.4 µM in the assay on MOLT-4 leukemia and 15.7 µM in the assay with SF-295 CNS.
Consider `C/C(=C\COc1ccc2ccc(=O)oc2c1)CCC(=O)C(C)(C)O`, for which the TGI was 32.2 µM in the assay with HCT-116 colon; 76.3 µM in the assay on OVCAR-8 ovarian; 58.4 µM with SN12C renal; greater than 100 µM in the assay on DU-145 prostate; 51.1 µM in the assay on HCT-15 colon; greater than 100 µM with MDA-MB-231 breast. Moreover, the TGI was 69.7 µM in the assay with NCI-H226 lung, 37.1 µM in the assay with UACC-62 melanoma, 67.5 µM in the assay with MOLT-4 leukemia and greater than 100 µM in the assay with SF-295 CNS.
In the case of `NS(=O)(=O)c1ccc(N=Nc2cc3ccccc3c(C(=O)O)c2O)cc1`, the TGI is greater than 100 µM with HCT-116 colon; greater than 100 µM with OVCAR-8 ovarian; greater than 100 µM in the assay on SN12C renal; greater than 100 µM in the assay with DU-145 prostate; greater than 100 µM with HCT-15 colon; 97 µM with MDA-MB-231 breast. For the same compound, the TGI in the assay on NCI-H226 lung is greater than 100 µM; with UACC-62 melanoma it was 97 µM; with MOLT-4 leukemia it was greater than 100 µM; in the assay with SF-295 CNS, greater than 100 µM.
Turning to `O=C(CN1CCN(c2cc3c(cc2F)c(=O)c(C(=O)O)cn3C2CC2)CC1)Nc1ccc(C(=O)/C=C/c2ccccc2)cc1`, the GI50 is 0.659 µM in the assay on HCT-116 colon; 3.07 µM in the assay on OVCAR-8 ovarian; 3.02 µM with SN12C renal; 3.74 µM with DU-145 prostate; 3.68 µM in the assay with HCT-15 colon; 1.84 µM in the assay with MDA-MB-231 breast. Further, the GI50 was 6.83 µM with NCI-H226 lung, 3.71 µM with UACC-62 melanoma, 5.13 µM with MOLT-4 leukemia and 2.11 µM with SF-295 CNS. The TGI in the assay on HCT-116 colon was 2.68 µM; in the assay on OVCAR-8 ovarian it was greater than 100 µM; in the assay with SN12C renal, greater than 100 µM; in the assay on DU-145 prostate, greater than 100 µM; in the assay with HCT-15 colon, greater than 100 µM; in the assay on MDA-MB-231 breast, 5.13 µM. The TGI in the assay with NCI-H226 lung is greater than 100 µM; with UACC-62 melanoma, greater than 100 µM; in the assay with MOLT-4 leukemia it was greater than 100 µM; in the assay on SF-295 CNS, 6.25 µM.
On to `COc1cc2cc(Oc3ccc(NC(=O)Nc4cc(C(F)(F)F)cc(C(F)(F)F)c4)cc3)c(C)nc2cc1OCCN1CCCCC1`, for which the GI50 with HCT-116 colon was 1.75 µM; with OVCAR-8 ovarian, 1.87 µM; with SN12C renal it was 1.68 µM; in the assay with DU-145 prostate it was 1.71 µM; in the assay on HCT-15 colon, 1.62 µM; with MDA-MB-231 breast it was 1.52 µM. For the same compound, the GI50 with NCI-H226 lung is 1.7 µM; with UACC-62 melanoma, 1.82 µM; in the assay with MOLT-4 leukemia, 1.73 µM; with SF-295 CNS, 1.83 µM. For the same compound, the TGI was 3.24 µM in the assay with HCT-116 colon; 3.72 µM in the assay on OVCAR-8 ovarian; 3.22 µM with SN12C renal; 3.08 µM with DU-145 prostate; 3.09 µM with HCT-15 colon; 2.99 µM with MDA-MB-231 breast. Besides, the TGI in the assay on NCI-H226 lung is 3.96 µM; in the assay on UACC-62 melanoma, 3.31 µM; with MOLT-4 leukemia, 3.7 µM; with SF-295 CNS, 3.38 µM.
For the compound `Nc1ccc(Sc2ccc3c4c2cccc4c(=O)n2c4ccccc4nc32)cc1`, the GI50 with HCT-116 colon was 5.05 µM; in the assay with OVCAR-8 ovarian, 5.13 µM; in the assay with SN12C renal, 2.61 µM; in the assay with DU-145 prostate, 3.8 µM; in the assay with HCT-15 colon it was 3.34 µM; with MDA-MB-231 breast, 5.31 µM. Besides, the GI50 was 2.43 µM with NCI-H226 lung, 2.48 µM in the assay with UACC-62 melanoma, 2.57 µM in the assay with MOLT-4 leukemia and 2.38 µM in the assay with SF-295 CNS. Also, the TGI is 26.7 µM in the assay on HCT-116 colon; 30.9 µM in the assay with OVCAR-8 ovarian; 19.7 µM in the assay on SN12C renal; 14.1 µM in the assay with DU-145 prostate; 40 µM in the assay with HCT-15 colon; 30 µM with MDA-MB-231 breast. The TGI was determined as 11.3 µM with NCI-H226 lung, 16.1 µM in the assay with UACC-62 melanoma, 7.68 µM in the assay with MOLT-4 leukemia and 8.01 µM in the assay on SF-295 CNS.
As to `CCCCCCCC(=O)O[C@H]1[C@H]2[C@@H](CC1(C)C)C(=O)[C@]13O[C@H]1C(=O)[C@]1(CO1)[C@]23C`, the GI50 in the assay with HCT-116 colon was 3.07 µM and 1.63 µM; in the assay on OVCAR-8 ovarian, 8.06 µM; with NCI-H226 lung, 20.2 µM; in the assay on UACC-62 melanoma it was 6.47 µM; in the assay with MOLT-4 leukemia, 1.17 µM; in the assay with SF-295 CNS it was 20.2 µM. In addition, the TGI with HCT-116 colon is 12.4 µM and 3.8 µM; in the assay on OVCAR-8 ovarian, 24.5 µM and 8.05 µM; in the assay on SN12C renal, 12.6 µM and 9.31 µM; in the assay on DU-145 prostate, 27.9 µM; in the assay on HCT-15 colon it was 8.26 µM and 7.9 µM; with MDA-MB-231 breast, 44.5 µM. Moreover, the TGI in the assay with NCI-H226 lung is 26.8 µM and 48.9 µM; with UACC-62 melanoma, 20.8 µM and 7.29 µM; in the assay on MOLT-4 leukemia it was 10.9 µM and 2.68 µM; in the assay on SF-295 CNS, 43.7 µM and 36.5 µM.
For `COc1ccc(OC)c(/C=C/C(=O)c2ccc(SC)cc2)c1`, the GI50 in the assay with HCT-116 colon is 2.57 µM; with OVCAR-8 ovarian it was 24.3 µM; with SN12C renal it was 17.2 µM; with DU-145 prostate, 4.37 µM; with HCT-15 colon, 13.8 µM; in the assay on MDA-MB-231 breast, 54 µM. Also, the GI50 in the assay with NCI-H226 lung is 28.9 µM; with UACC-62 melanoma, 15 µM; in the assay with MOLT-4 leukemia, 3.26 µM; in the assay with SF-295 CNS, 5.05 µM. The TGI was 7.77 µM with HCT-116 colon; 68.7 µM in the assay on OVCAR-8 ovarian; 33.9 µM with SN12C renal; 18.3 µM with DU-145 prostate; 36.6 µM with HCT-15 colon; greater than 100 µM in the assay on MDA-MB-231 breast. The TGI is 88.4 µM in the assay on NCI-H226 lung, 29.1 µM in the assay on UACC-62 melanoma, greater than 100 µM with MOLT-4 leukemia and 57 µM with SF-295 CNS.
With `CCN(CC)CCn1nc2c3c(cccc3c1=O)-c1ccccc1-2`, the GI50 was 1.78 µM with HCT-116 colon; 2.23 µM in the assay with OVCAR-8 ovarian; 2.07 µM with SN12C renal; 2.11 µM with DU-145 prostate; 1.44 µM with HCT-15 colon; 4.92 µM with MDA-MB-231 breast. In addition, the GI50 is 1.18 µM in the assay on NCI-H226 lung, 1.98 µM in the assay with UACC-62 melanoma, 1.44 µM in the assay on MOLT-4 leukemia and 1.39 µM with SF-295 CNS. Moreover, the TGI in the assay on HCT-116 colon is greater than 50 µM; in the assay on OVCAR-8 ovarian it was greater than 50 µM; with SN12C renal, greater than 50 µM; with DU-145 prostate, greater than 50 µM; in the assay with HCT-15 colon, 13.3 µM; in the assay on MDA-MB-231 breast, 19.4 µM. The TGI with NCI-H226 lung is 2.58 µM; with UACC-62 melanoma, 7.81 µM; with MOLT-4 leukemia, 8.46 µM; in the assay on SF-295 CNS, 7.45 µM.
As to `COC(=O)CCCCCCCCC(=O)c1c(C)[nH]c(/C=C2\N=C(c3ccc[nH]3)C=C2OC)c1C`, the GI50 is 8.09 µM in the assay with HCT-116 colon; 14.4 µM in the assay with OVCAR-8 ovarian; greater than 53.8 µM with SN12C renal; 32.1 µM with DU-145 prostate; 22.1 µM in the assay with HCT-15 colon; 7.83 µM in the assay on MDA-MB-231 breast. Moreover, the GI50 with NCI-H226 lung was 8.72 µM; in the assay on UACC-62 melanoma it was 10.7 µM; in the assay with MOLT-4 leukemia, 0.755 µM; with SF-295 CNS it was greater than 58.8 µM. Moreover, the TGI with HCT-116 colon was greater than 56 µM; in the assay with OVCAR-8 ovarian, greater than 59.9 µM; with SN12C renal, greater than 100 µM; in the assay on DU-145 prostate it was greater than 100 µM; with HCT-15 colon, greater than 57.7 µM; with MDA-MB-231 breast, greater than 100 µM. The TGI is greater than 100 µM in the assay with NCI-H226 lung, greater than 82.9 µM in the assay on UACC-62 melanoma, greater than 43.6 µM in the assay with MOLT-4 leukemia and greater than 100 µM in the assay on SF-295 CNS.
In the case of `Cn1cc(C2=C(c3cccc(Cl)c3)C(=O)NC2=O)c2ccccc21`, the GI50 with HCT-116 colon is greater than 25 µM; in the assay on OVCAR-8 ovarian it was greater than 25 µM; in the assay on SN12C renal, 20.6 µM; in the assay with DU-145 prostate it was greater than 25 µM; with HCT-15 colon it was greater than 25 µM; in the assay on MDA-MB-231 breast, greater than 12.6 µM. Further, the GI50 in the assay on NCI-H226 lung is greater than 20.6 µM; with UACC-62 melanoma it was 5.19 µM; in the assay with MOLT-4 leukemia, 15.8 µM; with SF-295 CNS, greater than 25 µM. The TGI in the assay with HCT-116 colon, in the assay on OVCAR-8 ovarian, in the assay on SN12C renal, in the assay on DU-145 prostate, in the assay on HCT-15 colon and in the assay with MDA-MB-231 breast was greater than 25 µM in each case. Also, the TGI in the assay on NCI-H226 lung was greater than 25 µM; with UACC-62 melanoma, 12.7 µM; in the assay on MOLT-4 leukemia, greater than 25 µM; in the assay with SF-295 CNS it was greater than 25 µM.

Values taken from PubChem BioAssay (NCI).
